Data: ChEMBL document CHEMBL6178017, “Intercepting the Downstream of the Estrogen Receptor Signaling Pathway: Discovery of a Potent and Efficient SRC-3 PROTAC Degrader for Overcoming Endocrine Resistance Breast Cancer” (J Med Chem, 2025)
Calls of active or inactive are those of the source. The calls are words filed in the database; no cut-off is given here.

How the values were obtained:
[1] = Induction of cell cycle arrest in tamoxifen-resistant human LCC2 cells assessed as accumulation of cells at G2/M phase at 10 uM incubated for 48 hrs by propidium iodide staining based flow cytometry (reference value: 11.42%); type: functional
MCF7 [2] = experiment: Induction of apoptosis in human MCF7 cells assessed as increase in late apoptotic cells at 1 to 20 uM incubated for 48 hrs by AnnexinV-FITC/PI staining based flow cytometry; type: functional, cell-based; conditions: dose 1-20 µM
[3] = molecular target: T1, Protein cereblon/Nuclear receptor coactivator 3 (Homo sapiens, UniProt Q9Y6Q9+Q96SW2); experiment: PROTAC activity at CRBN/SRC-3 in human MCF7 cells assessed as induction of SRC-3 degradation at 1 uM preincubated with SI-2 for 2 hrs followed by incubation with compound and measured after 36 hrs by immunoblot analysis; type: cell-based
[4] = molecular target: T1, Protein cereblon/Nuclear receptor coactivator 3; experiment: PROTAC activity at CRBN/SRC-3 in tamoxifen-resistant human LCC2 cells assessed as induction of SRC-3 degradation at 1 uM preincubated with proteasome inhibitor, bortezomib for 2 hrs followed by incubation with compound and measured after 36 hrs by immunoblot analysis; type: cell-based; conditions: Tamoxifen-resistant LCC2 cell
[5] = Half life of the compound in human plasma by LC-MS/MS analysis; type: ADME, cell-free
[6] = molecular target: T1, Protein cereblon/Nuclear receptor coactivator 3; experiment: PROTAC activity at CRBN/SRC-3 in human MCF-7 cells harboring Y537S mutant assessed as induction of SRC-3 degradation by measuring downregulation of SRC-3 protein level at 0.1 uM measured after 36 hrs by immunoblot analysis; type: cell-based; conditions: MCF7
[7] = Cmax in Balb/c mouse at 20 mg/kg, po by LC-MS/MS analysis; type: ADME, organism-based; conditions: in vivo
MCF7 [8] = experiment: Induction of cell cycle arrest in human MCF7 cells assessed as accumulation of cells at G1 phase at 5 to 20 uM incubated for 48 hrs by propidium iodide staining based flow cytometry; type: functional; conditions: dose 5-20 µM
[9] = Induction of apoptosis in tamoxifen-resistant human LCC2 cells assessed as late apoptotic cells at 1 uM incubated for 48 hrs by AnnexinV-FITC/PI staining based flow cytometry (reference value: 4.83%); type: functional, Tamoxifen-resistant LCC2 cell
[10] = Tmax in Balb/c mouse at 4 mg/kg, ip by LC-MS/MS analysis; type: ADME, organism-based; conditions: in vivo
Cytochrome P450 2C9 = Cytochrome P450 2C9 (Homo sapiens, UniProt P11712); experiment: Inhibition of CYP2C9 (unknown origin) using diclofenac as substrate; type: ADME
LNCaP = experiment: Antiproliferative activity against human LNCaP cells assessed as inhibition of cell growth by CCK-8 assay; type: functional, cell-based
[11] = molecular target: T1, Protein cereblon/Nuclear receptor coactivator 3; experiment: PROTAC activity at CRBN/SRC-3 in human MCF7 cells assessed as induction of SRC-3 degradation at 1 uM preincubated with proteasome inhibitor, MG-132 for 2 hrs followed by incubation with compound and measured after 36 hrs by immunoblot analysis; type: cell-based
[12] = molecular target: T1, Protein cereblon/Nuclear receptor coactivator 3; experiment: PROTAC activity at CRBN/SRC-3 in tamoxifen-resistant human LCC2 cells assessed as induction of SRC-3 degradation at 1 uM preincubated with CRBN ligand-pomolidomide for 2 hrs followed by incubation with compound and measured after 36 hrs by immunoblot analysis; type: cell-based; conditions: Tamoxifen-resistant LCC2 cell
[13] = Antitumor activity against tamoxifen-resistant human LCC2 cells xenografted in Balb/c mouse assessed as inhibition of tumor growth at 5 uM/Kg, ip administered once every 2 days for 23 days; type: functional, Tamoxifen-resistant LCC2 cell; conditions: time 23 day, at 5 µmol/kg
[14] = Induction of cell cycle arrest in tamoxifen-resistant human LCC2 cells assessed as accumulation of cells at G2/M phase at 5 uM incubated for 48 hrs by propidium iodide staining based flow cytometry (reference value: 11.42%); type: functional
[15] = molecular target: T1, Protein cereblon/Nuclear receptor coactivator 3; experiment: PROTAC activity at CRBN/SRC-3 in human MCF7 cells assessed as induction of AR degradation at 0.01 to 5 uM incubated for 24 hrs by immunoblot analysis; type: cell-based; conditions: dose 0.01-5 µM
[16] = molecular target: Cereblon/Ikaros (Homo sapiens) (UniProt Q96SW2+Q13422); experiment: PROTAC activity at CRBN/IKZF1 in tamoxifen-resistant human LCC2 cells assessed as degradation of IKZF1 at 10 uM measured after 36 hrs by diaPASEF-based quantitative proteomics analysis; conditions: Tamoxifen-resistant LCC2 cell
[17] = Tmax in Balb/c mouse at 20 mg/kg, po by LC-MS/MS analysis; type: ADME, organism-based; conditions: in vivo
[18] = Induction of apoptosis in tamoxifen-resistant human LCC2 cells assessed as viable cells at 1 uM incubated for 48 hrs by AnnexinV-FITC/PI staining based flow cytometry (reference value: 88.09%); type: functional; conditions: Tamoxifen-resistant LCC2 cell, read-out: Activity
[19] = Bioavailability in Balb/c mouse at 4 mg/kg, ip by LC-MS/MS analysis; type: ADME, organism-based; conditions: in vivo
Mus musculus [20] = experiment: In vivo PROTAC activity at CRBN/SRC-3 in Balb/c mouse xenografted with tamoxifen-resistant human LCC2 cells assessed as induction of SRC-3 degradation in tumor tissues at 5 uM/Kg, ip administered once every 2 days for 23 days and measured on day 25 by western blot analysis; type: functional, organism-based; conditions: time 25.0 day
[21] = molecular target: T1, Protein cereblon/Nuclear receptor coactivator 3; experiment: PROTAC activity at CRBN/SRC-3 in tamoxifen-resistant human LCC2 cells assessed as downregulation of ER-alpha mRNA expression at 0.01 to 10 uM incubated for 36 hrs by qRT-PCR analysis; type: cell-based; conditions: Tamoxifen-resistant LCC2 cell, dose 0.01-10 µM
[22] = molecular target: T1, Protein cereblon/Nuclear receptor coactivator 3; experiment: PROTAC activity at CRBN/SRC-3 in human MCF7 cells assessed as induction of SRC-3 degradation at 1 uM preincubated with proteasome inhibitor, bortezomib for 2 hrs followed by incubation with compound and measured after 36 hrs by immunoblot analysis; type: cell-based
[23] = molecular target: T1, Protein cereblon/Nuclear receptor coactivator 3; experiment: PROTAC activity at CRBN/SRC-3 in human MCF7 cells harboring ER-alpha Y537S mutant assessed as downregulation of ER-alpha level at 0.01 to 10 uM measured after 36 hrs by immunoblot analysis; type: cell-based; conditions: dose 0.01-10 µM
[24] = molecular target: T1, Protein cereblon/Nuclear receptor coactivator 3; experiment: Binding affinity to CRBN/SRC-3 in human MCF7 cells assessed as CRBN/compound/SRC-3 ternary complex formation by measuring increase in yellow fluorescence intensity at 10 uM incubated for 6 hrs by immunofluorescence analysis; type: cell-based
Mus musculus [25] = experiment: In vivo PROTAC activity at CRBN/SRC-3 in Balb/c mouse xenografted with tamoxifen-resistant human LCC2 cells assessed as downregulation of ER-alpha protein level in tumor tissues at 5 uM/Kg, ip administered once every 2 days for 23 days and measured on day 25 by western blot analysis; type: functional, organism-based; conditions: time 25.0 day
[26] = molecular target: T1, Protein cereblon/Nuclear receptor coactivator 3; experiment: PROTAC activity at CRBN/SRC-3 in tamoxifen-resistant human LCC2 cells assessed as induction of SRC-3 degradation at 1 uM incubated for 9 hrs by immunoblot analysis; type: cell-based; conditions: Tamoxifen-resistant LCC2 cell
[27] = Induction of apoptosis in tamoxifen-resistant human LCC2 cells assessed as necrotic cells at 5 uM incubated for 48 hrs by AnnexinV-FITC/PI staining based flow cytometry (reference value: 1.16%); type: functional, Tamoxifen-resistant LCC2 cell
[28] = molecular target: T1, Protein cereblon/Nuclear receptor coactivator 3; experiment: PROTAC activity at CRBN/SRC-3 in human MCF7 cells harboring ER-alpha D538G mutant assessed as downregulation of ER-alpha level at 0.01 to 10 uM measured after 36 hrs by immunoblot analysis; type: cell-based; conditions: dose 0.01-10 µM
[29] = Induction of cell cycle arrest in tamoxifen-resistant human LCC2 cells assessed as accumulation of cells at G1 phase at 20 uM incubated for 48 hrs by propidium iodide staining based flow cytometry (reference value: 78.71%); type: functional

T1 sequence (Q96SW2 whole entry partner): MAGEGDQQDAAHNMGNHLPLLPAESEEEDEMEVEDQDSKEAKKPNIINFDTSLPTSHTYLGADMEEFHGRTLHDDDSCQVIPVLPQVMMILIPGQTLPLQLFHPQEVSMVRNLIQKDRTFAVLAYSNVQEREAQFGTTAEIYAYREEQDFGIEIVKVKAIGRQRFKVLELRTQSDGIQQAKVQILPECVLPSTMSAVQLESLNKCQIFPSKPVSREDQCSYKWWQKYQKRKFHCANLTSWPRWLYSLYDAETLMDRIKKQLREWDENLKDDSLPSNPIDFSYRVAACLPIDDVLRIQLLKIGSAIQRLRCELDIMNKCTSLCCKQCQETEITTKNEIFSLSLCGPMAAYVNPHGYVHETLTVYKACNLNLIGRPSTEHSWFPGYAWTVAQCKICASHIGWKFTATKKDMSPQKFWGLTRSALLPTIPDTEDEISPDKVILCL
T1 sequence (Q9Y6Q9 2-1424 limits assumed): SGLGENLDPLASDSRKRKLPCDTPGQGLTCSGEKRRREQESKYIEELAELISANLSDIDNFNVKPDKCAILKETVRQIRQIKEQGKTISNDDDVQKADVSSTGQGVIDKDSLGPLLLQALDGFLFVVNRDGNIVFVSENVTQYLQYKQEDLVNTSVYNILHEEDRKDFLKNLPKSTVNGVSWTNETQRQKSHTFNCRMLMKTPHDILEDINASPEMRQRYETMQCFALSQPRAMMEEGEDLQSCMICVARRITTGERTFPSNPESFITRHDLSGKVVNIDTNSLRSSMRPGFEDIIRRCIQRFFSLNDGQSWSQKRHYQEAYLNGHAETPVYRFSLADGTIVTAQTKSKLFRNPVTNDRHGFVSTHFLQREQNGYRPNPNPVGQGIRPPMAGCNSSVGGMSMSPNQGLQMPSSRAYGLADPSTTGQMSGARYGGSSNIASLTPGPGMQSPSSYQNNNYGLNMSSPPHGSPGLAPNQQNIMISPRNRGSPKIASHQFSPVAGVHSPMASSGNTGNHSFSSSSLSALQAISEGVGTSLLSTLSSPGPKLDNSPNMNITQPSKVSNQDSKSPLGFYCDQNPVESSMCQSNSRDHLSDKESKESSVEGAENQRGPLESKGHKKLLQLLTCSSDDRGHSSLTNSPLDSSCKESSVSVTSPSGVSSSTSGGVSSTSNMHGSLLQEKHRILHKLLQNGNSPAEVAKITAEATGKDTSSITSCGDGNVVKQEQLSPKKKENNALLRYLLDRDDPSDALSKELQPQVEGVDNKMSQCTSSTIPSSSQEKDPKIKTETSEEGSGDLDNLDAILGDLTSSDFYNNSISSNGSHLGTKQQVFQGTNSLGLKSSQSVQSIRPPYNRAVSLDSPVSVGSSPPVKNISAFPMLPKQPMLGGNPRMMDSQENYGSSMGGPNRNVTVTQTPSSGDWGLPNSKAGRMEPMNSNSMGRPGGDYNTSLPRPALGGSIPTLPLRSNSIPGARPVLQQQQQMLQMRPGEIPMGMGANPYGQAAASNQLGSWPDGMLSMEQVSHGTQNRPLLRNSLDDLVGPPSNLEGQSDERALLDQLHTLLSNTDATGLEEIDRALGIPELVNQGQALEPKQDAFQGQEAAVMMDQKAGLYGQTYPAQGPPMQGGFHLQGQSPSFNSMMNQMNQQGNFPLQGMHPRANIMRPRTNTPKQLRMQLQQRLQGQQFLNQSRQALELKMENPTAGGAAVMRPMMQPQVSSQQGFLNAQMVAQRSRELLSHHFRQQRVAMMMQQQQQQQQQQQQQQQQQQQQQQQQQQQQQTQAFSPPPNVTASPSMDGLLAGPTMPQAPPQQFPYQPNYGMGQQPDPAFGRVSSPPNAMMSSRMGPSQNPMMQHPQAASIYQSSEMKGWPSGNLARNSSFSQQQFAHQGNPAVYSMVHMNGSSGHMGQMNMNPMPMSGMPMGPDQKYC
Chain of Cytochrome P450 2C9 (P11712 whole entry): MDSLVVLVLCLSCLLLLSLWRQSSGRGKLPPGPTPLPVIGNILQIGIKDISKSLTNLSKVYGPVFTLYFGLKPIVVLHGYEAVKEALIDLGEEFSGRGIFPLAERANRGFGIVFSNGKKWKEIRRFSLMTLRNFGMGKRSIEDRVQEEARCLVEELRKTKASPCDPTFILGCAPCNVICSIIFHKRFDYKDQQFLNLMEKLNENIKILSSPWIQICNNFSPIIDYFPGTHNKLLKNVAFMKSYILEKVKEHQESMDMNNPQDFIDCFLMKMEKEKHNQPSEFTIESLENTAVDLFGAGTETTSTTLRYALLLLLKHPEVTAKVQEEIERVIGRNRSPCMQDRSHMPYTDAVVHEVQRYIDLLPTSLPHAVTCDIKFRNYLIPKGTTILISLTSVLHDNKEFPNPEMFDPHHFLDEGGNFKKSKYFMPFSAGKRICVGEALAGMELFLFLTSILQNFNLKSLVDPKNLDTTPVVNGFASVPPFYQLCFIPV

C/C(=N\Nc1nc2ccccc2n1C1CN(C2CCN(c3cccc4c3C(=O)N(C3CCC(=O)NC3=O)C4=O)CC2)C1)c1ccccn1 (stereo unspecified)
Activity [1]: 3.83%
Activity (MCF7 [2]): Active
Activity [3]: Active
Activity [4]: inactive
half-life [5]: 35.6 h
Activity [6]: Active
Cmax [7]: 25.4 ng/mL
Activity (MCF7 [8]): Active
Activity [9]: 21.9%
Tmax [10]: 19.8 min
IC50 (Cytochrome P450 2C9): > 10 µM
IC50 (LNCaP): 1.43 µM
Activity [11]: inactive
Activity [12]: inactive
TGI [13]: 54%
Activity [14]: 4.62%
Activity [15]: Active; Downregulation Effect Is Not As Pronounced As Er-Alpha
Activity [16]: inactive
Tmax [17]: 19.8 min
viability at 1 µM [18]: 51.4%
bioavailability [19]: 8%
Activity (Mus musculus [20]): Active
Activity [21]: Active
Activity [22]: inactive
Activity [23]: Active
Activity [24]: Active
Activity (Mus musculus [25]): Active
Activity [26]: Active
Activity [27]: 10.46%
Activity [28]: Active
Activity [29]: 85.05%
